Results as given in article PMC5118987 (Antimicrobial Agents and Chemotherapy, 2016).

Assays:
[1] = biological target: T1, HIV-1 IN strand transfer activity (Human immunodeficiency virus type 1 group M subtype B, UniProt P04585); assay: IN strand transfer assay (HTRF); assay type: biochemical; settings: purified recombinant HIV-1 IN; mean ± SD, 3 experiments; read-out: IC50 Inhibition of strand transfer
T1 construct: Recombinant IN containing an N-terminal 6His tag was expressed in BL21(DE3) pLysS bacteria; 6His (N); made in house; host or cells: E. coli BL21(DE3) pLysS
Protocol: (§2) The strand transfer activity of IN was measured using an assay based on homogeneous time-resolved fluorescence resonance energy transfer (HTRF) ([34]) and has been previously described in detail ([35]). An HTRF-based 3′-processing assay was performed essentially as described for the IN strand transfer assay using a specially designed nonprocessed donor DNA in the absence of target DNA ([35]).

[2] = biological target: T2, HIV-1 IN 3′-processing activity (Human immunodeficiency virus type 1 group M subtype B, UniProt P04585); assay: IN 3′-processing assay (HTRF); assay type: biochemical; settings: purified recombinant HIV-1 IN; mean ± SD, 5 experiments
T2 construct: Recombinant IN containing an N-terminal 6His tag was expressed in BL21(DE3) pLysS bacteria; 6His (N); made in house; host or cells: E. coli BL21(DE3) pLysS
Protocol: as §2

[3] = Cytotoxicity assay in MT-2 cells; assay type: cell-based; settings: human, uninfected MT-2 cells
Protocol: (§1) For the antiviral assay utilizing MT-2 and MT-4 cells, 50 μl of a 2× test concentration of 5-fold serially diluted compound in culture medium with 10% FBS was added to each well of a 96-well plate (9 concentrations) in triplicate. MT-2 and MT-4 cells were infected with HIV-1 IIIb at a multiplicity of infection (MOI) of 0.01 for 3 h. Fifty microliters of infected cell suspension in culture medium with 10% FBS (∼1.5 × 10^4 cells) then was added to each well containing 50 μl of diluted compound. The plates were then incubated at 37°C for 5 days. After 5 days of incubation, 100 μl of CellTiter-Glo reagent (Promega Biosciences, Inc., Madison, WI) was added to each well containing MT-2 or MT-4 cells. Cell lysis was carried out by incubation at room temperature for 10 min and chemiluminescence was read. For compound cytotoxicity assessment, the protocol was identical except that uninfected cells were used and compounds were serially diluted 3-fold.

HIV-1 IIIb [4] = assay: Antiviral assay in MT-4 cells; assay type: cell-based; settings: Human immunodeficiency virus 1, MT4, 120 h, 5 days
Protocol: as §1

[5] = Cytotoxicity assay in MT-4 cells; assay type: cell-based; settings: human, uninfected MT-4 cells
Protocol: as §1

[6] = test system: HRV (mixture of HRV1A, HRV14, HRV16); assay: microbe, parasite or virus in culture; assay type: cell-based; settings: Human rhinovirus sp., H1-HeLa
RSV strain A2 = assay: microbe, parasite or virus in culture; assay type: cell-based, respiratory syncytial virus; settings: human respiratory syncytial virus, HEp-2
HIV-1 IIIb [7] = test system: HIV-1 IIIb
Protocol: Each compound series was prepared several times independently in quadruplicate to capture the variations in Hill slope associated with preparation of compound serial dilutions. The assay was performed in a 384-well format. MT-4 cells were infected in bulk at the same MOI as that described above, and the plates were developed with CellTiter-Glo reagent 5 days postinfection.

in vitro [8] = settings: human, 6 days
Text: Freshly isolated human peripheral blood mononuclear cells (PBMCs) were obtained from healthy volunteers (supplied by AllCells, Inc., Alameda, CA). Blood donors were negative for HIV-1, hepatitis B, and hepatitis C viral infections. CD4^+ T lymphocytes were isolated by negative selection using a magnetically labeled antibody cocktail ([sequence] Technologies Inc., Vancouver, Canada) and cultured in RPMI cell culture media (Life Technologies, Grand Island, NY) supplemented with 10% FBS. CD4^+ T cells were activated for 48 h at 37°C by addition of 1 μg/ml phytohemagglutinin (PHA; Sigma, St. Louis, MO) and 5 ng/ml interleukin-2 (IL-2; Roche Diagnostics, Indianapolis, IN). […] Human PBMCs were used for cytotoxicity assays after culturing for 48 h in either complete RPMI medium alone (resting conditions) or RPMI containing 1 μg/ml PHA and 5 ng/ml IL-2 (activated conditions).

in vitro [9] = settings: human, CC50 in Primary Human Hepatocytes
[10] = Cytotoxicity in AD38 cells; settings: human
HCV 2a Replicon = assay: Anti-HCV activity, HCV 2a replicon; settings: Hepatitis C virus, Huh-7
HBV Production = assay: microbe, parasite or virus in culture; settings: Hepatitis B virus
HIV-1 IIIb [11] = assay: HIV breakthrough selection in MT-2 cells; settings: MT-2, HIV-1 IIIb; FTC 4× EC95, EVG 5× EC95, BIC and DTG 2.5× and 5× EC95; up to day 32
HIV-1 BaL = assay: Antiviral assay in primary CD4+ T lymphocytes (p24 ELISA); settings: Human immunodeficiency virus 1, BAL
Text: Freshly isolated human peripheral blood mononuclear cells (PBMCs) were obtained from healthy volunteers (supplied by AllCells, Inc., Alameda, CA). Blood donors were negative for HIV-1, hepatitis B, and hepatitis C viral infections. CD4^+ T lymphocytes were isolated by negative selection using a magnetically labeled antibody cocktail ([sequence] Technologies Inc., Vancouver, Canada) and cultured in RPMI cell culture media (Life Technologies, Grand Island, NY) supplemented with 10% FBS. CD4^+ T cells were activated for 48 h at 37°C by addition of 1 μg/ml phytohemagglutinin (PHA; Sigma, St. Louis, MO) and 5 ng/ml interleukin-2 (IL-2; Roche Diagnostics, Indianapolis, IN).
A 3-fold serial dilution of test compounds in RPMI medium was added to triplicate wells and incubated at 37°C for 5 days. Human monocytes were seeded on 96-well plates at a density of 3 × 10^5 cells per well, differentiated into adherent macrophages, and then infected with HIV-1 BaL virus in 50 μl RPMI for 3 h at 37°C. […] The supernatants derived from the CD4^+ T-cell and macrophage cultures were harvested 6 and 12 days postinfection, respectively, and the amount of HIV present was quantified by p24 enzyme-linked immunosorbent assay (ELISA) (PerkinElmer, Waltham, MA).

[12] = test system: HIV-1 integration in MT-2 cells (HIV-1 IIIb); settings: HIV-1 IIIb-infected MT-2, relative to mock-treated control
Protocol: Quantification of 2-long terminal repeat (LTR) circles, late reverse transcription products, and integration junctions was adapted from a previously described method ([30]). […] Three hours after viral adsorption, the infected cells were washed twice with 20 ml of RPMI 1640 medium containing 10% FBS and antibiotics and seeded in 6-well plates in 2 ml of culture medium at 1 × 10^6 cells per well. […] These plates were incubated at 37°C for either 12 h (for late reverse transcription product quantification) or 24 h (for 2-LTR circle and Alu-LTR product quantification), after which time the cells were harvested for total DNA isolation. DNA was extracted from each well using the QIAamp DNA minikit (Qiagen, Valencia, CA) and collected as a 100-μl eluate. TaqMan real-time PCR-quantified 2-LTR junctions (2-LTR circles), late reverse transcription products, and integration junctions (Alu-LTR) were normalized to the level of host globin gene in each sample. Quantification by PCR was performed on the ViiA 7 real-time PCR system (Life Technologies, Grand Island, NY).

O=C(NCc1c(F)cc(F)cc1F)c1cn2c(c(O)c1=O)C(=O)N1[C@H]3CC[C@H](C3)O[C@@H]1C2 [BIC, Bictegravir]
IC50 [1]: 0.0075 ± 0.0003 µM | IC50 [2]: 0.241 ± 0.051 µM | CC50 at 5 days [3]: 10.3 µM | EC50 (HIV-1 IIIb [4]): 0.0024 ± 0.0004 µM | CC50 at 5 days [5]: 3.66 µM | EC50 [6]: > 50 µM | EC50 (RSV strain A2): > 50 µM | PAEC95 (protein binding-adjusted EC95) (HIV-1 IIIb [7]; EC95 in MT-4 with human serum shift): 0.361 µM | EC95 (HIV-1 IIIb [7]; MT-4 cells, calculated using Hill slope): 0.0083 µM | CC50 (in vitro [8]; CC50, Activated PBMCs (IL-2/PHA 2 days)): 5.7 µM | CC50 (in vitro [8]; CC50, Resting PBMCs): 8.4 µM | CC50 (in vitro [9]; Donor 1): > 100 µM | CC50 (in vitro [9]; Donor 2): > 100 µM | CC50 at 5 days [10]: > 50 µM | EC50 (HCV 2a Replicon): > 44 µM | EC50 (HBV Production): > 50 µM | day postinfection of HIV-1 breakthrough (HIV-1 IIIb [11]): no virus breakthrough was observed | EC50 (HIV-1 BaL): 0.0015 ± 0.0003 µM | reduction of authentic integration products in infected cells [12]: 100 fold
